Test results: patent US12263180B2, “Method for treatment of COVID-19-associated conditions” (priority 2020, dated 2025)
≈ marks a conversion by molar mass, not a printed value. Where two headings read alike, the source gives them in different places.

Legend:
[1] = water solubility in aqueous buffer under physiological conditions
LPS-induced ALI = conditions: mice; cited from earlier work
MUC1 = conditions: mouse model of ALI; cited from earlier work
[2] = in vivo
[3] = system: chronic immune thrombocytopenia (ITP); conditions: ITP patients, two randomized studies; cited from earlier work
COVID-19 [4] = test: Phase 3 placebo-controlled study in hospitalized COVID-19 patients; assay type: in vivo
human neutrophils = conditions: in vitro; cited from earlier work
IL-6 = conditions: RA patients, within the first week of treatment; cited from earlier work
[5] = human, in vivo; cited from earlier work
physchem = conditions: aqueous buffer
[6] = system: SARS-CoV-2 as well as other human and bat coronaviruses; conditions: mice; cited from earlier work
[7] = system: SARS-CoV-2 as well as other human and bat coronaviruses; conditions: human airway epithelial cells; cited from earlier work
COVID-19 [8] = conditions: critically ill COVID-19 patients, compared to standard care; cited from earlier work
human ACE2 = human ACE2 (Homo sapiens, UniProt Q9BYF1); conditions: cited from earlier work
Chain of human ACE2 (Q9BYF1 18-805): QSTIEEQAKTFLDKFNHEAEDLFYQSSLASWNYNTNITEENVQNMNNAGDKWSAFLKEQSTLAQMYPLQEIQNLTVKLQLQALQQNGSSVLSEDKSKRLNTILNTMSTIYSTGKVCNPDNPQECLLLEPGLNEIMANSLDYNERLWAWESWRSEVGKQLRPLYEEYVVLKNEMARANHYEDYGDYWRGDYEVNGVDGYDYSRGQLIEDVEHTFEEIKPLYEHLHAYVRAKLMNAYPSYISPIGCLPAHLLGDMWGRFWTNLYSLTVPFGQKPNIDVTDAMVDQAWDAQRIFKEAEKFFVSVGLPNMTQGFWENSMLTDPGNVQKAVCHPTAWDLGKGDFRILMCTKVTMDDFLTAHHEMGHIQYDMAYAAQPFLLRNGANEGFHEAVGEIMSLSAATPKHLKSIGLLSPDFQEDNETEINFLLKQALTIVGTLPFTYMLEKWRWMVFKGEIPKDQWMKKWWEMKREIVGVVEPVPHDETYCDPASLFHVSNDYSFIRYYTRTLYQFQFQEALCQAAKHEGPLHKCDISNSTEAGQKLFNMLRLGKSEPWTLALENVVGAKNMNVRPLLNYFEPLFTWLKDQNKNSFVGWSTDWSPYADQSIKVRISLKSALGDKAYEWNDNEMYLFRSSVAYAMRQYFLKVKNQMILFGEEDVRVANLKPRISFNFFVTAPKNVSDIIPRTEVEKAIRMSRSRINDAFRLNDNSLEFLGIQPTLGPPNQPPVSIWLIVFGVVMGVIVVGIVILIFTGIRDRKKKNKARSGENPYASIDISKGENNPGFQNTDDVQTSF

Which solubility [1] does the source give for `COc1cc(Nc2ncc(F)c(Nc3ccc4c(n3)NC(=O)C(C)(C)O4)n2)cc(OC)c1OC` [Compound 1, N4-(2,2-Dimethyl-3-oxo-4H-5-pyrid[1,4]oxazin-6-yl)-5-fluoro-N2-(3,4,5-trimethoxyphenyl)-2,4-pyrimidinediamine] here?
Its solubility is 1 to 2 µg/mL (≈ 2.13 to 4.25 µM).

And the “protection in LPS-induced ALI” value (LPS-induced ALI)?
Its value is “protective”.

And the MUC1 (MUC1)?
The MUC1 was “reduced MUC1”.

For `COc1cc(Nc2ncc(F)c(Nc3ccc4c(n3)N(COP(=O)(O)O)C(=O)C(C)(C)O4)n2)cc(OC)c1OC` [Compound 4], which “oral bioavailability when formulated with progroup -CH2-O-P(O)(OH)2” value [2] is on record?
Its value is “increased dramatically”.

What about the bleeding episodes [3] of the same compound?
Its bleeding episodes is “decreased bleeding episodes”.

And the platelet counts [3]?
The platelet counts was “increased platelet counts”.

What about the “occurrence of several severe symptoms of COVID-19 (AKI, kidney malfunction, acute lung injury, thrombosis, coagulopathy)” value (COVID-19 [4]; vs placebo) of the same compound?
The value was “significantly reduced”.

What about the “percentage of COVID-19 infected patients that develop severe disease that requires intensive care” value (COVID-19 [4]; vs placebo) of the same compound?
The value was “significantly reduce”.

What about the “percentage of patients developing severe or critical disease” value (COVID-19 [4]; within 29 days of first dose, vs placebo) of the same compound?
The value was “significantly smaller percentage”.

And the “percentage of patients that develop ARDS” value (COVID-19 [4]; within patients requiring intensive care)?
Its value is “significantly reduce”.

And the “number of patients that die” value (COVID-19 [4]; within patients that develop ARDS)?
Its value is “significantly reduce”.

And the NETosis (human neutrophils)?
The NETosis was “block NETosis”.

And the “plasma levels of IL-6” value (IL-6)?
The value was “reduce plasma levels of IL-6”.

And the safety profile [5]?
Its safety profile is “manageable safety profile”.

And the solubility (physchem)?
Its solubility is > 5000 µg/mL.

Which results are given for `O=c1nc(NO)ccn1[C@@H]1O[C@H](CO)[C@@H](O)[C@H]1O` [N4-hydroxycytidine]?
inhibition of coronaviruses [6]: inhibit SARS-CoV-2 as well as other human and bat coronaviruses; inhibition of coronaviruses [7]: inhibit SARS-CoV-2 as well as other human and bat coronaviruses

For `C[C@]12CCC(=O)C=C1CC[C@@H]1[C@@H]2[C@@H](O)C[C@@]2(C)[C@H]1CC[C@]2(O)C(=O)CO` [hydrocortisone, Hydrocortisone], which mortality rate (COVID-19 [8]) is on record?
Its mortality rate is “effective in reducing mortality rate”.

With `N[C@@H](CCN[C@@H](CCN1CC[C@H]1C(=O)O)C(=O)O)C(=O)O` [nicotianamine] as the compound, how does the IC50 (human ACE2) read?
The IC50 was 84 nM.
